Reference: US20250268913A1, “PKC INHIBITORS FOR THE TREATMENT OF SEPTIC CHOLESTASIS WITH CTM TARGETING” (SMARTDYELIVERY GMBH, priority 2018, published 2025)

Legend:
[1] = cited from earlier work
[2] = tested on: PCI model, C57/BL6 mice; assay: Survival rate in cholestasis model under septic conditions, peritoneal contamination and infection (PCI); format: in vivo; settings: free drug alone, 4 mg/kg body weight
Experimental: In order to mimic the septic cholestasis, a systemic inflammation was induced using the well-established peritoneal contamination and infection (PCI) model. In this model, a human feces suspension is applied intraperitoneally (i.p.) and rapidly triggers sepsis with liver dysfunction. For each batch of human stool, the dose is titrated carefully for a survival between 0% and 20% within two weeks.
To find the adequate dose of stool, different doses were tested. 6 h after i.p. application of the stool, 8-12 weeks old C57/BL6 mice or FVB/N mice were treated with the nanoparticles or the free drug respectively.
A systemic infection/sepsis with organ failure was induced in male C57/BL6 mice by using the PCI model. For this purpose, a human fecal suspension (2.5 μl/g BW for stool batch1 and 6 μl/g for stool batch 2, respectively) was injected intraperitoneally (without anesthesia) with weight adaptation, thus triggering peritonitis with subsequent systemic infection. […] The animals were closely monitored and scored every 6 hours for signs of infection in order to timely. […] With the evaluated dose of 6 μl/g BW stool and additional antibiotic therapy, all mice died within three days, as shown in the Kaplan-Meier-Schätzer diagram (FIG. 14, right panel). […]

[3] = compared to placebo; cited from earlier work

## CO[C@@H]1[C@H](N(C)C(=O)c2ccccc2)C[C@H]2O[C@]1(C)n1c3ccccc3c3c4c(c5c6ccccc6n2c5c31)C(=O)NC4 [midostaurin]
[1]; most common serious adverse reactions
  Serious adverse reactions due to infections and gastrointestinal disorders: ≥ 20%
[1]; number of deaths
  on-treatment deaths from disease progression attributed to infection: 4
[1]; page 8 of the professional information
  adverse reaction sepsis occurring in patients: ≥ 9 % of patients
[1]; patients
  Grade ≥3 adverse reactions reported (fatigue, sepsis, gastrointestinal hemorrhage, pneumonia, diarrhea, febrile neutropenia): ≥ 5%
  Serious adverse reactions: 68 % of patients
  Treatment discontinuation due to adverse reaction: 21 % of patients

## CN(C)CCCn1cc(C2=C(c3c[nH]c4ccccc34)C(=O)NC2=O)c2ccccc21 [BIM-1]
[2]
  activity of free drug (survival): active

## O=C1NC(=O)/C(=C\c2ccc3nccnc3c2)S1 [AS605240]
[2]
  activity of free drug (survival): active

## CC[C@H](Nc1ncnc2[nH]cnc12)c1nc2cccc(F)c2c(=O)n1-c1ccccc1 [idelalisib]
[3]
  risk of developing sepsis as adverse effect: five-fold higher
